Experimental data taken from US4140767A, “Somatostatin analogs” (Merck & Co., Inc., priority 1977, dated 1979).

What was measured:
growth hormone release = test: Inhibition of pentobarbital stimulated growth hormone release in vivo; parameters: species or system rat; settings: rats, sodium pentobarbitol 17 mg./Kg., analog subcutaneously, blood after 15 minutes; somatostatin = 1; range in brackets
Method: Somatostatin analogs were compared to somatostain in their ability to inhibit the release of growth hormone in pentobarbital stimulated rats; a modification of the procedure of Brazeau et al. Endocrinology, 94, 184-187 (1974) was empaloyed. Rats were lightly etherized and sodium pentobarbitol (17 mg./Kg.) was injected into the exposed Saphenous vein; somatostatin or analog was simultaneously injected subcutaneously. After 15 minutes the animals were bled via the orbital sinus and blood collected for subsequent growth hormone analysis.
(§1) Doses were randomized between groups of animals (6 rats/group). Potency values were determined by four, six, or 8 point bioassays with somatostatin as the reference standard. Relative potency values were calculated by a relative potency formula for parallel line bioassays as described in Finney, D. J. Statistical Method in Biological Assay (Charles Griffin and Co., Ltd., London) Chap. 4 pp. 99-138 (1964).

Rat pituicytes = test: Growth hormone inhibition in vitro; assay type: cell-based; settings: rat pituicytes after 4 days in culture, 4 hours incubation; somatostatin = 1; range in brackets
Method: Rat pituicytes were isolated according to the procedures of Vale and Grant "In vitro Pituitary Hormone Secretion Assay for Hypophysiotropic Substances" in Methods in Enzymology. Vo. XXXVII, eds. O'Malley, B. W. and Hardman, J. G. (Academic Press, Inc., New York) pp. 5-93 (1975).
After 4 days in culture, the cells were washed and incubated for 4 hours in Dulbecco-modified Eagle's medium in the presence or absence of graded doses of each analog or somatostatin. The medium was then collected for subsequent growth hormone determination by a double antibody radioimmunoassay for rat growth hormone.
as §1

plasma insulin = test: Inhibition of insulin: lowering of portal vein insulin in anesthetized rats; assay type: in vivo, rat; settings: anesthetized male Sprague-Dawley rats, external jugular vein administration, portal vein blood after 5 minutes; somatostatin = 1; range in brackets
Method: (§2) The relative potencies of somatostatin analogs on the lowering of plasma insulin and glucagon are determined by the following method:
(§3) Analogs of somatostatin were […] to somatostatin in their ability to lower the levels of portal vein glucagon and insulin in anesthetized rats. Male Sprague-Dawley rats (Charles River CD) weighing 160-200 grams were anesthetized with urethane (150 mg./100 gm.) Saline or peptides were administered via the external jugular vein. After 5 minutes the portal vein was exposed and blood was collected via syringes containing 3 mg. EDTA and placed in chilled tubes containing 100 μl. of Trasylol (obtained from FBA Pharmaceuticals) for subsequent hormone analysis. Plasma levels of glucagon were determined by the method of Faloona, G. R., and Unger, R. H. "Glucagon" in Methods of Hormone Radioimmunoassay, eds. […] Plasma levels of insulin were determined by a modification of the procedure of Herbert, V., Lau, K. S., Gottlieb, C. […]
as §1, with “4 pp. 99-138 (1964).” left out

plasma glucagon = test: Inhibition of glucagon: lowering of portal vein glucagon in anesthetized rats; assay type: in vivo, rat; settings: anesthetized male Sprague-Dawley rats, external jugular vein administration, portal vein blood after 5 minutes; somatostatin = 1; range in brackets
Method: as §2, §3
as §1, with “4 pp. 99-138 (1964).” left out

C[C@H](N)C(=O)NCC(=O)N[C@H]1CSSC[C@@H](C(=O)O)NC(=O)[C@H](CO)NC(=O)[C@H]([C@@H](C)O)NC(=O)[C@H](Cc2ccccc2)NC(=O)[C@H]([C@@H](C)O)NC(=O)[C@H](CCCCN)NC(=O)[C@H](Cc2c[nH]c3ccccc23)NC(=O)[C@H](Cc2ccccc2)NC(=O)[C@H](Cc2ccccc2)NC(=O)[C@H](CC(N)=O)NC(=O)[C@H](CCCCN)NC1=O [Somatostatin]
1: Inhibition of Pentobarbital Stimulated Growth Hormone Release In Vivo; potency relative to somatostatin (growth hormone release) | Growth Hormone Inhibition In Vitro; potency relative to somatostatin (Rat pituicytes) | Inhibition of Insulin; potency relative to somatostatin (plasma insulin) | Inhibition of Glucagon; potency relative to somatostatin (plasma glucagon)
